Test results published in patent US20100113445A1, “Chemical Compounds” (SMITHKLINE BEECHAM CORPORATION, priority 2007, published 2010).
Where a name gives a salt, the structure may show the parent alone.

Target: T1, Wee1 (Homo sapiens, UniProt P30291)
T1 construct: endogenous in cells; host or cells: HeLa cells
Assay: Cell assay for Wee1 inhibitory activity (cell-based ELISA of cdc2 phosphorylation)
Details: aphidicolin-synchronized Hela cells in G2-M; phospho-cdc2(Tyr15) sandwich ELISA; read-out: pIC50, cell assay for Wee1 inhibitory activity (converted)
Text: Cell Assay for Wee1 Inhibitory Activity
Wee1 inhibitory activity can be measured using a cell-based ELISA assay.
Hela cells are synchronized using aphidicolin, which blocks the entry of cells into S-phase. Cells in G2-M transition phase are then obtained by releasing the cells from aphidicolin treatment for approximately 7-9 hrs. The phosphorylation level of the Wee1 target cdc2 may then be measured by sandwich ELISA using an anti-cdc2 antibody and an anti-phospho-cdc2(Tyr15) antibody. This cell assay was used to calculate a pIC50 for the compounds described in Examples 3, 4, 6-8, 10-12, 15, 17, 18, 21, 23, 25-27, 33, 35, 39, 43, 44, 51, 63, and 99.

T1 sequence (P30291 whole entry): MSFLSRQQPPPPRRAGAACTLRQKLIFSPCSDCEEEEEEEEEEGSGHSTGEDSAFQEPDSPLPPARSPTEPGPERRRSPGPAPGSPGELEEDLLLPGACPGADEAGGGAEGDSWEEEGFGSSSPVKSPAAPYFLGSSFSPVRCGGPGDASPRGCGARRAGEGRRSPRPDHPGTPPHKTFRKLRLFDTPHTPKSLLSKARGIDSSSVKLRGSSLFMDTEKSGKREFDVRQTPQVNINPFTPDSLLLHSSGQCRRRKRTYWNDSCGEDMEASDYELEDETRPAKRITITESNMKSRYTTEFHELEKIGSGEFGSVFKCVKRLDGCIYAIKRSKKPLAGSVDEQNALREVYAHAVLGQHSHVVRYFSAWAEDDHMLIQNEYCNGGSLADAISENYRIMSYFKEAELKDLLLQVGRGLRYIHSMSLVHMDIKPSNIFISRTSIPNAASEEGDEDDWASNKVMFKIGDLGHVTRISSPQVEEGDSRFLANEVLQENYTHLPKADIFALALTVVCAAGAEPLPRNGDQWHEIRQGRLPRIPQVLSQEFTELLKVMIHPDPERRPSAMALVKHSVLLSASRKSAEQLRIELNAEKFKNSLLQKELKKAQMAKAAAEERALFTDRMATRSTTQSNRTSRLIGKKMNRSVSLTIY

Row | SMILES | IC50 [µM]
1 | CCN(CC)CCOc1ccc(Nc2ncc(-c3cncnc3)c(Nc3cccc(C#N)c3)n2)cc1 [Example 44, 3-({2-[(4-{[2-(diethylamino)ethyl]oxy}phenyl)amino]-5,5′-bipyrimidin-4-yl}amino)benzonitrile] | ≤ 10
2 | CCN(CC)CCOc1ccc(Nc2ncc(-c3ccc(O)cc3)c(Nc3ccccc3OC)n2)cc1 [Example 7] | ≤ 10
3 | CCN(CC)CCOc1ccc(Nc2ncc(-c3cn[nH]c3)c(Nc3ccccc3OC)n2)cc1 [Example 3, N^2-(4-{[2-(diethylamino)ethyl]oxy}phenyl)-N^4-[2-(methyloxy)phenyl]-5-(1H-pyrazol-4-yl)-2,4-pyrimidinediamine] | ≤ 10
4 | CCC(C)NC(=O)c1ccccc1Nc1nc(Nc2ccc(Cn3cncn3)cc2)ncc1-c1cn[nH]c1 (stereo not drawn) [Example 25, N-(1-methylpropyl)-2-[(5-(1H-pyrazol-4-yl)-2-{[4-(1H-1,2,4-triazol-1-ylmethyl)phenyl]amino}-4-pyrimidinyl)amino]benzamide] | ≤ 10
5 | CCN(CC)CCOc1ccc(Nc2ncc(-c3cnc4ccccc4c3)c(Nc3ccccc3OC)n2)cc1 [Example 10, N^2-(4-{[2-(diethylamino)ethyl]oxy}phenyl)-N^4-[2-(methyloxy)phenyl]-5-(3-quinolinyl)-2,4-pyrimidinediamine] | ≤ 10
6 | CCN(CC)CCOc1ccc(Nc2ncc(-c3cccc(CO)c3)c(Nc3ccccc3OC)n2)cc1 [Example 21, [3-(2-[(4-{[2-(diethylamino)ethyl]oxy}phenyl)amino]-4-{[2-(methyloxy)phenyl]amino}-5-pyrimidinyl)phenyl]methanol] | ≤ 10
7 | CCN(CC)CCOc1ccc(Nc2ncc(-c3cncc(OC)c3)c(Nc3ccccc3OC)n2)cc1 [Example 6, N^2-(4-{[2-(diethylamino)ethyl]oxy}phenyl)-N^4-[2-(methyloxy)phenyl]-5-[5-(methyloxy)-3-pyridinyl]-2,4-pyrimidinediamine] | ≤ 10
8 | COc1ccccc1Nc1nc(Nc2cccc(OCCN(C)C)c2)ncc1-c1cn[nH]c1 [Example 99, N^2-(3-{[2-(dimethylamino)ethyl]oxy}phenyl)-N^4-[2-(methyloxy)phenyl]-5-(1H-pyrazol-4-yl)-2,4-pyrimidinediamine hydrochloride] | ≤ 10
9 | CCN(CC)CCOc1ccc(Nc2ncc(-c3cccc(N)c3)c(Nc3ccccc3OC)n2)cc1 [Example 35, 5-(3-aminophenyl)-N^2-(4-{[2-(diethylamino)ethyl]oxy}phenyl)-N^4-[2-(methyloxy)phenyl]-2,4-pyrimidinediamine] | ≤ 10
10 | CCN(CC)CCOC(=O)Nc1ccc(Nc2ncc(-c3cncnc3)c(Nc3ccccc3OC)n2)cc1 [Example 43, 2-(diethylamino)ethyl {4-[(4-{[2-(methyloxy)phenyl]amino}-5,5′-bipyrimidin-2-yl)amino]phenyl}carbamate] | ≤ 10
11 | CCN(CC)CCOc1ccc(Nc2ncc(-c3cncnc3)c(Nc3ccccc3OC)n2)cc1 [Example 8, N^2-(4-{[2-(diethylamino)ethyl]oxy}phenyl)-N^4-[2-(methyloxy)phenyl]-5,5′-bipyrimidine-2,4-diamine] | ≤ 10
12 | CCN(CC)CCOc1ccc(Nc2ncc(-c3cnn(Cc4ccccc4)c3)c(Nc3ccccc3OC)n2)cc1 [Example 12, N^2-(4-{[2-(diethylamino)ethyl]oxy}phenyl)-N^4-[2-(methyloxy)phenyl]-5-[1-(phenylmethyl)-1H-pyrazol-4-yl]-2,4-pyrimidinediamine] | ≤ 10
13 | Fc1cccc(CCNc2nc(Nc3ccc(Cn4cncn4)cc3)ncc2-c2cncnc2)c1 [Example 26, N^4-[2-(3-fluorophenyl)ethyl]-N^2-[4-(1H-1,2,4-triazol-1-ylmethyl)phenyl]-5,5′-bipyrimidine-2,4-diamine] | ≤ 10
14 | COc1ccccc1Nc1nc(Nc2ccc(Cn3cncn3)cc2)ncc1-c1cncnc1 [Example 33, N^4-[2-(methyloxy)phenyl]-N^2-[4-(1H-1,2,4-triazol-1-ylmethyl)phenyl]-5,5′-bipyrimidine-2,4-diamine] | ≤ 10
15 | CCN(CC)CCOc1ccc(Nc2ncc(-c3ccc4[nH]ncc4c3)c(Nc3ccccc3OC)n2)cc1 [Example 4, N^2-(4-[{2-(diethylamino)ethyl]oxy}phenyl)-5-(1H-indazol-5-yl)-N^4-[2-(methyloxy)phenyl]-2,4-pyrimidinediamine] | ≤ 10
16 | CCN(CC)CCOc1ccc(Nc2ncc(-c3cccc(C(N)=O)c3)c(Nc3ccccc3OC)n2)cc1 [Example 63, 3-(2-[(4-{[2-(diethylamino)ethyl]oxy}phenyl)amino]-4-{[2-(methyloxy)phenyl]amino}-5-pyrimidinyl)benzamide] | ≤ 10
17 | CCN(CC)CCOc1ccc(Nc2ncc(-c3ccccc3Cl)c(Nc3ccccc3OC)n2)cc1 [Example 11, 5-(2-chlorophenyl)-N^2-(4-{[2-(diethylamino)ethyl]oxy}phenyl)-N^4-[2-(methyloxy)phenyl]-2,4-pyrimidinediamine] | ≤ 10
18 | Cc1ncc(-c2cccc(Nc3nc(Nc4ccc(Cn5cncn5)cc4)ncc3-c3cncnc3)c2)s1 [Example 51, N^4-[3-(2-methyl-1,3-thiazol-5-yl)phenyl]-N^2-[4-(1H-1,2,4-triazol-1-ylmethyl)phenyl]-5,5′-bipyrimidine-2,4-diamine] | ≤ 10
